# Activity calls are given as the source filed them. The rule behind the calls is not given here.
# How the values were obtained:
# [1] = target: Serine/threonine-protein kinase Nek7 (Homo sapiens) (UniProt Q8TDX7); test: Inhibition of NEK7 Lys2 labeling site harbouring DIKPANVFITATGVVK in human Huh-7 cells at 1 uM by KiNativ Profiling analysis relative to control; assay type: cell-based
# [2] = target: T1, Eukaryotic translation initiation factor 2-alpha kinase 3 (Homo sapiens) (UniProt Q9NZJ5); test: Inhibition of PEK K2 labeling site in human Huh-7 cells at 10 uM by KiNativ Profiling analysis relative to control; assay type: cell-based
# T1 sequence (whole entry): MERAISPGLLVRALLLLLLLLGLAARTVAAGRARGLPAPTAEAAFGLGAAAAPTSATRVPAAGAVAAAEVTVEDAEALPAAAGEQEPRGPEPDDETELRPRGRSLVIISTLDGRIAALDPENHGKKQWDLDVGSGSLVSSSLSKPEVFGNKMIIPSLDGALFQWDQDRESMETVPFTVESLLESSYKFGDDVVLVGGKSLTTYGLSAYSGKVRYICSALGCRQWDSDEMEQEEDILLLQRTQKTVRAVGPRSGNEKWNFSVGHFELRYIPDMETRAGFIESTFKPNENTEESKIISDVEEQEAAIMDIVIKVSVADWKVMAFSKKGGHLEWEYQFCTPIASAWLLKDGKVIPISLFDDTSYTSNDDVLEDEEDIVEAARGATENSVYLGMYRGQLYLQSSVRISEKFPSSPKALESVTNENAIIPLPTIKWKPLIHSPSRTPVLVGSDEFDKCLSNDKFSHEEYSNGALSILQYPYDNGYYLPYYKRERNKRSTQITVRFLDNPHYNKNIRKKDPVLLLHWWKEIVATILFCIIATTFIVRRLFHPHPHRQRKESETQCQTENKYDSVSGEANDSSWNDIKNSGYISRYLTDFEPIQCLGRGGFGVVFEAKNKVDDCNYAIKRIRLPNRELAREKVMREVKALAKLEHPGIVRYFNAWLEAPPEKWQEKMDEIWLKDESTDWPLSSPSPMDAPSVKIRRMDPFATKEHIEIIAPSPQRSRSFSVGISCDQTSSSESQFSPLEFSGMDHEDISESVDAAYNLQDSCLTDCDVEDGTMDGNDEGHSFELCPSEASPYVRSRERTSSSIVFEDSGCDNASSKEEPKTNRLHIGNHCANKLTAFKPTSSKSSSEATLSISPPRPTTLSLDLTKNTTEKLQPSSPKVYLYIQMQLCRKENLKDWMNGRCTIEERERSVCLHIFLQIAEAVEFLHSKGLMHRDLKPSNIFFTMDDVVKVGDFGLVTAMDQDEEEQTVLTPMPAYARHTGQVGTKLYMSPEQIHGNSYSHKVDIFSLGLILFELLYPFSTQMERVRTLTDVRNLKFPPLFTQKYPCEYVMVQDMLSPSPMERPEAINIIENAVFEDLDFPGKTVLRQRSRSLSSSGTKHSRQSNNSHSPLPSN
# [3] = target: Serine/threonine-protein kinase SIK1 (Homo sapiens) (UniProt P57059); test: Inhibition of SIK1 K2 labeling site in human Huh-7 cells at 10 uM by KiNativ Profiling analysis relative to control; assay type: cell-based
# Serine/threonine-protein kinase SIK1 (Homo sapiens), sequence (P57059 whole entry): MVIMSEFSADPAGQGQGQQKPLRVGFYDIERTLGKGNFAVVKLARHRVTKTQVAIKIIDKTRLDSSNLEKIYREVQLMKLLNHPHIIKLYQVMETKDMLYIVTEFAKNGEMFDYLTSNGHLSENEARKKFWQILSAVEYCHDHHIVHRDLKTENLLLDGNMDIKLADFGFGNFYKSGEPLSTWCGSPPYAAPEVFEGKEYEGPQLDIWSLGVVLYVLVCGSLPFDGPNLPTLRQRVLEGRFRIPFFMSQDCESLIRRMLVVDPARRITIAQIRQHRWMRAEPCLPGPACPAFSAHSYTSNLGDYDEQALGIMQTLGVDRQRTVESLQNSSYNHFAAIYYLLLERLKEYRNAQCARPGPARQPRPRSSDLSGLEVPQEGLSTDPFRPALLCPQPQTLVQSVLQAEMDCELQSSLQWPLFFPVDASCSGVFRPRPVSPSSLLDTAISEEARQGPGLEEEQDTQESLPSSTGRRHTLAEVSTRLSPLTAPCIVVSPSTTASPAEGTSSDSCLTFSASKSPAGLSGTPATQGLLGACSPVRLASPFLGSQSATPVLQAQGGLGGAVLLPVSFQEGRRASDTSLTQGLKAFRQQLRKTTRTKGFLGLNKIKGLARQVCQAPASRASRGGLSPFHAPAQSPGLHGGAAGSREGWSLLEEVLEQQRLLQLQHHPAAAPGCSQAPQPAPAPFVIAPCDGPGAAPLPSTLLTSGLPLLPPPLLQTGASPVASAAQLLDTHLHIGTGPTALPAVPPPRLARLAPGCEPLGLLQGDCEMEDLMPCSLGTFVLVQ
# [4] = target: Calcium/calmodulin-dependent protein kinase type II subunit gamma (Homo sapiens) (UniProt Q13555); test: Inhibition of CaMK2g K1 labeling site in human Huh-7 cells at 10 uM by KiNativ Profiling analysis relative to control; assay type: cell-based
# Calcium/calmodulin-dependent protein kinase type II subunit gamma (Homo sapiens), sequence (Q13555 whole entry): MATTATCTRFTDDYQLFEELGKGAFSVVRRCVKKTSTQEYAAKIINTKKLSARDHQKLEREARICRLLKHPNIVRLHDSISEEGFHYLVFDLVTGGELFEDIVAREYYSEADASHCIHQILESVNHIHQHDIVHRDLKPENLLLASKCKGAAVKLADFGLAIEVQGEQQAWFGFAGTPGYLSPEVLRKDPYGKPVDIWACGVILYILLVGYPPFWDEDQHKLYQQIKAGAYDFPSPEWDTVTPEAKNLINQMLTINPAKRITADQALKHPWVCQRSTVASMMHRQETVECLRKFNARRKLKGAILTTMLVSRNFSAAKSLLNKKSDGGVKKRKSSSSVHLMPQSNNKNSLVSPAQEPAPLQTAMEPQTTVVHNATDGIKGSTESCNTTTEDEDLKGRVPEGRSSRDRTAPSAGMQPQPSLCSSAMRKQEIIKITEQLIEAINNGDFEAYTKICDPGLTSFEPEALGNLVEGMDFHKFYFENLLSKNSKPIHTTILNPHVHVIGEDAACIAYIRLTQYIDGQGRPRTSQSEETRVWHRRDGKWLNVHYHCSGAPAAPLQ
# [5] = target: T2, Serine/threonine-protein kinase Sgk3 (Homo sapiens) (UniProt Q96BR1); test: Inhibition of SGK3 K1 labeling site in human Huh-7 cells at 1 uM by KiNativ Profiling analysis relative to control; assay type: cell-based
# T2 sequence (whole entry): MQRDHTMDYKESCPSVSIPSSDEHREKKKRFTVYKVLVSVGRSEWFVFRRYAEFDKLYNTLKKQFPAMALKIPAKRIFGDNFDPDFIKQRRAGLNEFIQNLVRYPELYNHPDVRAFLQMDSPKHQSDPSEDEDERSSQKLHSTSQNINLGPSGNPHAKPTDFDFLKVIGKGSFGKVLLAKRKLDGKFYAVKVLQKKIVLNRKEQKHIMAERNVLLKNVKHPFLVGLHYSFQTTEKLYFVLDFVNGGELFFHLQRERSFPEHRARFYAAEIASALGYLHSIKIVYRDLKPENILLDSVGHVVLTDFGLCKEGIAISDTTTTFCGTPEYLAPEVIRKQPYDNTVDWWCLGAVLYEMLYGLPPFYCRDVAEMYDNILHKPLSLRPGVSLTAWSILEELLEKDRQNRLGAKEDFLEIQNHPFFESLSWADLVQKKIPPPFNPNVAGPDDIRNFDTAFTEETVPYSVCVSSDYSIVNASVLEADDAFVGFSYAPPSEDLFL
# [6] = target: Vascular endothelial growth factor receptor 2 (Homo sapiens) (UniProt P35968); test: Inhibition of VEGFR2 (unknown origin) at 10 uM by Ambit Kinomescan binding assay relative to control; values are per cent of control
# Vascular endothelial growth factor receptor 2 (Homo sapiens), sequence (P35968 whole entry): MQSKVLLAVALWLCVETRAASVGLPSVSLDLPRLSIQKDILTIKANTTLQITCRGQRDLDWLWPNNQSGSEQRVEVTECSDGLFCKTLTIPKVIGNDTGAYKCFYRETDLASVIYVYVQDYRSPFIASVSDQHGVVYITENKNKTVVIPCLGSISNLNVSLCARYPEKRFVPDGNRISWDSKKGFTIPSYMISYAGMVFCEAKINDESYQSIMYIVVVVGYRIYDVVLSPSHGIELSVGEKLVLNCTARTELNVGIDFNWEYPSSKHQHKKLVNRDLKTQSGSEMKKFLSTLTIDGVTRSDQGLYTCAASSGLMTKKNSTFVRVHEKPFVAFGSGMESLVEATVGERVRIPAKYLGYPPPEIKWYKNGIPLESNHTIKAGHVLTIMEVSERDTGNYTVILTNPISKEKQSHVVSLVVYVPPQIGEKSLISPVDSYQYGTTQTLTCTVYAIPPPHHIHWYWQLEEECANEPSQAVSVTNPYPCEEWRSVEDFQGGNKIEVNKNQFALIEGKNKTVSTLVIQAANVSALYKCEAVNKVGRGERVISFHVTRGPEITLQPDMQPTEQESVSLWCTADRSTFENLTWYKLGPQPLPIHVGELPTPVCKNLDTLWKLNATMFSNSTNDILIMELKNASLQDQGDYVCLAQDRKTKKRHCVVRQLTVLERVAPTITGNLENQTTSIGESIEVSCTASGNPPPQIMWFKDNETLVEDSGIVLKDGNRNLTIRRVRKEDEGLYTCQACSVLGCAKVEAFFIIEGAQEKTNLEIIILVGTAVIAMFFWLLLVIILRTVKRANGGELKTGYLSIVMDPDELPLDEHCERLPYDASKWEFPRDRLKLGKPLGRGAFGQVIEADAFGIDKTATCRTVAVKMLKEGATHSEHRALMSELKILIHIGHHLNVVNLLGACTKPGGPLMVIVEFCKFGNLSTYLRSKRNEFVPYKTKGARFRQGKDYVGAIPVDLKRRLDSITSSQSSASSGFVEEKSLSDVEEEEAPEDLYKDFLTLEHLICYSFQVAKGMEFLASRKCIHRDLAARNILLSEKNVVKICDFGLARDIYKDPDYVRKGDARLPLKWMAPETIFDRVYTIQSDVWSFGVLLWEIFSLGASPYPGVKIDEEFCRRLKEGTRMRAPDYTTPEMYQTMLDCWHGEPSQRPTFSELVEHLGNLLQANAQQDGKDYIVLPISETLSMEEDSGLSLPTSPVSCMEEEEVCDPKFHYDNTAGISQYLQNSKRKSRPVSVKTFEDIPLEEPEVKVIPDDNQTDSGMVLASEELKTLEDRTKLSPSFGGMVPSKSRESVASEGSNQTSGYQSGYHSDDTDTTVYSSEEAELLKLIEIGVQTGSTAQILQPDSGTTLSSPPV
# [7] = target: T3, Inhibitor of nuclear factor kappa-B kinase subunit alpha (Homo sapiens) (UniProt O15111); test: Inhibition of IKK-alpha (unknown origin) at 10 uM by Ambit Kinomescan binding assay relative to control; values are per cent of control
# T3 sequence (whole entry): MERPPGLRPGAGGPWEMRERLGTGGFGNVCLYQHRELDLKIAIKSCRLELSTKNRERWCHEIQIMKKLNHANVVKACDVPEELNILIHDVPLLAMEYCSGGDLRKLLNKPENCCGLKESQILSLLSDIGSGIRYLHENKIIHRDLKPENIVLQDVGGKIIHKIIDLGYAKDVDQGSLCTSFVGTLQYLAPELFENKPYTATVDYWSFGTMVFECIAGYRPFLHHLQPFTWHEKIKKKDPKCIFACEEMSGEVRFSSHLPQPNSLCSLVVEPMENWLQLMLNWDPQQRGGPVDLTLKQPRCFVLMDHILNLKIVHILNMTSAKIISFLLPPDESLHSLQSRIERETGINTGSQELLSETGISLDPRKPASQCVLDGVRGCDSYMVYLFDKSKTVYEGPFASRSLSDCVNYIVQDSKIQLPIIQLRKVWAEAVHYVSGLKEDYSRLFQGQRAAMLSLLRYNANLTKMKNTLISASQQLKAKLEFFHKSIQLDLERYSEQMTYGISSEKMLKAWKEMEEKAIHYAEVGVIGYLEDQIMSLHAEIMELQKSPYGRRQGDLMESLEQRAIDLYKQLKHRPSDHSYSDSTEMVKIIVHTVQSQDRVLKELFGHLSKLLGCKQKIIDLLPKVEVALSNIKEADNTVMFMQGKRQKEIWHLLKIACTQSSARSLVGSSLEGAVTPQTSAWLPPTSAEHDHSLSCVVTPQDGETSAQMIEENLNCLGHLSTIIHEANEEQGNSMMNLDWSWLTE
# [8] = target: Glycogen synthase kinase-3 beta (Homo sapiens) (UniProt P49841); test: Inhibition of GSK3B Lys2 labeling site in human A-375 cells at 0.05 uM by KiNativ Profiling analysis relative to control; assay type: cell-based
# Glycogen synthase kinase-3 beta (Homo sapiens), sequence (P49841 whole entry, looked up): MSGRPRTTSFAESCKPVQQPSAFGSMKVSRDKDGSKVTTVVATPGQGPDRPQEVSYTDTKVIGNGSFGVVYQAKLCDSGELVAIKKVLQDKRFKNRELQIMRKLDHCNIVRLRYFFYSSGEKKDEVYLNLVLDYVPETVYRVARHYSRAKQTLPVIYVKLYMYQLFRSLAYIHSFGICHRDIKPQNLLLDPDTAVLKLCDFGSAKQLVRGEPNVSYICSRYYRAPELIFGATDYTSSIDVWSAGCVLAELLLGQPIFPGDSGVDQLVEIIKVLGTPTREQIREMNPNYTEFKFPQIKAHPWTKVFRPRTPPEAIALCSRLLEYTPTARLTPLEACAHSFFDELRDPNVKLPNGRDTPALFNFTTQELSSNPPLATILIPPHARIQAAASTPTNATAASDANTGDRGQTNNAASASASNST
# Serine/threonine-protein kinase Nek7 (Homo sapiens), sequence (Q8TDX7 whole entry, looked up): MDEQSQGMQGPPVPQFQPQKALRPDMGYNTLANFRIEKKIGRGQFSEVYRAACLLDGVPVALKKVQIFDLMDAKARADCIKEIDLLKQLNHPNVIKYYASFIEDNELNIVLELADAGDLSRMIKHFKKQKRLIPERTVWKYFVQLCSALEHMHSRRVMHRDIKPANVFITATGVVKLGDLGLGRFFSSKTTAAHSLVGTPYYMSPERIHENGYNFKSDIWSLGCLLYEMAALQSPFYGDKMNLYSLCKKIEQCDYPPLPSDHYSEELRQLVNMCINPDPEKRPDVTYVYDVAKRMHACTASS
smiles,measurement,setting,value
CNc1cc(Oc2cc(C(=O)Nc3cc(N4CCN(C)CC4)cc(C(F)(F)F)c3)ccc2C)ncn1,inhibition,[1],-2.7%
CCN1CCN(Cc2ccc(NC(=O)c3ccc(C)c(Oc4ccnc5[nH]ccc45)c3)cc2C(F)(F)F)CC1,inhibition,[2],inactive
same,inhibition,[3],6.6%
same,inhibition,[4],0%
same,inhibition,[5],8.8%
same,residual activity,[6],1.5%
same,percent of control,[7],0.95%
CCN1CCN(Cc2ccc(NC(=O)c3ccc(C)c(/C=C/c4cnc5[nH]ccc5c4OC)c3)cc2C(F)(F)F)CC1,inhibition,[8],29.8%

# Reference: ChEMBL document CHEMBL5696442, “Discovery of type II inhibitors of TGFβ-activated kinase 1 (TAK1) and mitogen-activated protein kinase kinase kinase kinase 2 (MAP4K2)” (J Med Chem, 2015)
